Results from patent US6590140B1, “Metal-regulated transporters and uses therefor” (Trustees of Dartmouth College, priority 1996, dated 2003).

What was measured:
[1] = system: zrt1zrt2 double mutant strain ZHY3; assay: 65Zn uptake assay in zrt1zrt2 double mutant; assay type: cell-based, Saccharomyces cerevisiae; settings: ZHY3 without ZIP gene, 5 minute time course using 10 mM Zn
Procedure: (§1) Zinc uptake assays were performed as described previously for iron uptake (Eide et al. (1992) J. Biol. Chem. 267:20774-20781) except that ^65ZnCl2 (Amersham) and LZM-EDTA were substituted for ^59FeCI3 and LIM-EDTA, respectively. Cells were incubated for 5 minutes in LZM-EDTA plus the indicated concentration of ^65Zn, collected on glass fiber filters (Schleicher and Schuell), washed with 10 ml ice-cold SSW (1 mM EDTA, 20 mM trisodium citrate, 1 mM KH2PO4, 1 mM CaCl2, 5 mM MgSO4, 1 mM NaCl pH 4.2), and cell-associated radioactivity was measured by liquid scintillation counting. […] Michaelis-Menten kinetic values were determined using […] software (Intellikinetics, Princeton, N.J.). […] The statistical significance of the differences of values relative to controls was determined with one-way analysis of variance (ANOVA) followed by a Dunnett multiple comparison test. β-galactosidase activity was assayed in cells harvested at an OD600 of 0.5-2.0 as described by Guarente (Guarente, L. (1983) Methods Enzymol. 101:181-191) and activity is expressed as the change in absorbance at 420 nm×1000 divided by (min×ml of culture used×OD600 of the culture). Cell-associated zinc was measured in parallel cultures supplemented with tracer amounts of ^65Zn (10 μM) and nonradioactive zinc to the indicated final concentration. […]

ZIP2 = molecular target: T1, ZIP2 (Arabidopsis thaliana, UniProt Q9LTH9); assay: Zn uptake by ZHY3 containing ZIP2; assay type: cell-based; settings: ZHY3 cells containing ZIP2, 5 minute time course using 10 mM Zn
T1 construct: expressed in transfected cells; host or cells: S. cerevisiae ZHY3 (zrt1::LEU2 zrt2::HIS3) with an Arabidopsis cDNA clone in pFL61
T1 sequence (Q9LTH9 30-353): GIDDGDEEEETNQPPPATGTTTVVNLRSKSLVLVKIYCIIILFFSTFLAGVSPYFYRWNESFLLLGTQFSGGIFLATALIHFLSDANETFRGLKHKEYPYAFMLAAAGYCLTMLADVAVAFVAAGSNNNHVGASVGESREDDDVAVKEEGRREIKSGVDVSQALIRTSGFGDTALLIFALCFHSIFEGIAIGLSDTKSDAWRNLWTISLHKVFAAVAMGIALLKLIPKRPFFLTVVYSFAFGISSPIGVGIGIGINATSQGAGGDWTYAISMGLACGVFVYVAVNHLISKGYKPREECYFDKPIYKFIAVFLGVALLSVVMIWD
Procedure: as §1

ZIP1 = molecular target: T2, ZIP1 (Arabidopsis thaliana, UniProt O81123); assay: Zn uptake by ZHY3 containing the ZIP1 gene; assay type: cell-based; settings: 5 minute time course using 10 mM Zn
T2 construct: expressed in transfected cells; host or cells: S. cerevisiae ZHY3 (zrt1::LEU2 zrt2::HIS3) with an Arabidopsis cDNA clone in pFL61
T2 sequence (O81123 29-355): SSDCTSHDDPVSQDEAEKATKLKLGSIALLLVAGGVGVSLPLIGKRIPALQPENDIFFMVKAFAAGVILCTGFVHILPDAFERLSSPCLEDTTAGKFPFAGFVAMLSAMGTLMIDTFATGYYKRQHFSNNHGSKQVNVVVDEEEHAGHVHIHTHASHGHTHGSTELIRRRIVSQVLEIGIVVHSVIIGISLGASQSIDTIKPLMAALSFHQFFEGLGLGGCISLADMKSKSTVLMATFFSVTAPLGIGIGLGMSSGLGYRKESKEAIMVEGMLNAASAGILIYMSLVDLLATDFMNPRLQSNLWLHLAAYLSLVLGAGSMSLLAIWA
Procedure: as §1

[Zn+2] [zinc]
zinc uptake [1]: essentially no detectable zinc uptake
Zn uptake (ZIP2): no Zn uptake
Zn uptake rate (ZIP1): 191 fmol/min/10^6 cells
